Earlier results, collected in the CATMoS acute toxicity set (Mansouri et al. 2021).
Several values for one entry are separate records, joined by “and”; a condition that tells them apart may be missing. Equal entries are not always repeated.

Assay: rat acute oral toxicity
Settings: in vivo
Text: […]The data set underlying the modeling effort for this project was initially compiled by NICEATM and U.S. EPA’s CCTE. Briefly, LD50 data were collected from rat acute oral systemic toxicity tests, including limit tests, ranges/confidence intervals, and discrete LD50 values. The full data set included 21,200 LD50 entries for 15,688 substances. […] Data were reviewed to ensure that LD50 values with obvious errors in the extracted data such as unit conversion errors (e.g., comma and decimal separator misplacements) were either fixed or removed. After this review, 16,209 LD50 values remained. Many of the chemicals represented had multiple LD50 entries, requiring that a single representative value per Chemical Abstracts Service Registry Number (CASRN) identifier be defined to facilitate modeling efforts. Based on ATWG feedback and to define the representative LD50 as a protective value while accounting for the distribution across multiple LD50s, the median of the lowest quartile was computed using only discrete LD50 values (omitting limit test data and range and confidence interval data). A detailed summary of the data compilation is available online on the NICEATM webpage dedicated to the collaborative modeling project (NTP 2020).
[…][…] For categorical designations, limit test and range/confidence interval LD50 data were integrated wherever possible. As such, the number of chemicals with end point values/calls varies across the modeling end points (Table 3) based on whether chemicals had representative LD50 values and/or other data. If a chemical had both, the representative value was used to determine categorical calls rather than limit test data. Some data were useable only for certain end points and categories depending on the thresholds. For example, ranges that spanned multiple hazard categories were considered only for the binary (very toxic/nontoxic) end points and omitted from rendering a determination for hazard category assignment.
[…]The final data set comprising 11,992 chemicals was split into training and evaluation sets […], respectively. This process was performed semirandomly by ordering chemicals based on the five end points (categorical and continuous LD50 values) and partitioning every fourth record into the evaluation set accordingly. This approach was taken to ensure an equivalent distribution of the LD50 values and the different hazard categories between the training and the evaluation sets without supervised sampling of the chemicals based on structures (Figure 1A). The sources of the chemical structures were also kept equivalent between the two sets, with chemical structures obtained from DSSTox, being the highest quality, representing over 75% of each set (Figure 1B).

Row | Compound | LD50
1 | CC(=O)c1ccccc1Cl | 1820 mg/kg
2 | CC(C)(C)C(=O)CCC1C(=O)N(c2ccccc2)N(c2ccccc2)C1=O | 455 mg/kg
3 | CCC12CCC3c4ccc(O)cc4CCC3C1CC(O)C2O (stereo unspecified) | 5010 mg/kg
4 | Oc1c(Cl)c(Cl)cc2[nH]c(C(F)(F)F)nc12 | 52 mg/kg
5 | CCCCCCCCCCCCCCCCCCN(C(=O)CC(C(=O)O)S(=O)(=O)O)C(CC(=O)O)C(=O)O (stereo unspecified) | 6500 mg/kg
6 | CNC(=O)Nc1ccccc1 | 3440 mg/kg
7 | CCN(CCCCCCOC(=O)c1ccc(OC)c(OC)c1)C1CCc2cc(OC)ccc2C1 (stereo unspecified) | 2830 mg/kg
8 | CC(C(=O)O)c1ccc2c(c1)CC(C(C)C)C2 (stereo unspecified) | 1500 mg/kg
9 | CC(C)(COC(N)=O)COC(N)=O | 2510 mg/kg
10 | OC(CNCC(O)C1COc2ccccc2O1)C1COc2ccccc2O1 (stereo unspecified) | 4490 mg/kg
11 | COP(=O)(OC)SC(C)C | 108 mg/kg
12 | CC=CC=CC=CC(C)=O | 4300 mg/kg
13 | CCOc1ccc(-n2c(C)nc3ccccc3c2=O)cc1 | 4800 mg/kg
14 | C=CC[N+](C)(C)CC=C | 3000 mg/kg
15 | CCn1cc(C(=O)O)c(=O)c2cc(F)c(N3CCNC(C)C3)c(F)c21 (stereo unspecified) | 3800 mg/kg and 1560 mg/kg
16 | CNC(=O)Oc1cccc2ccc(C)nc12 | 120 mg/kg
17 | O=C(O)c1ccc([N+](=O)[O-])cc1 | 1960 mg/kg
18 | CC1CC=NN1C(=N)N=C(N)N (stereo unspecified) | 4350 mg/kg
19 | CC1C2Cc3ccc(O)cc3C1(C)CCN2CCc1ccccc1 (stereo unspecified) | 90 mg/kg
20 | COc1ccc(CN2CCNCC2)c(OC)c1OC | 1700 mg/kg
21 | Clc1cc2oc3c(Cl)c(Cl)c(Cl)cc3c2cc1Cl | 0.916 mg/kg
22 | O=c1nc[nH]c2c1ncn2[C@@H]1O[C@H](COP(=O)(O)OP(=O)(O)O)[C@@H](O)[C@H]1O | 3790 mg/kg
23 | CC(C)COP(=S)(S)OCC(C)C | 3000 mg/kg
24 | COCCOC(=O)C1=C(C)NC(C)=C(C(=O)OC/C=C/c2ccccc2)C1c1cccc([N+](=O)[O-])c1 (stereo unspecified) | 4410 mg/kg
25 | O=C1c2ccc3c4c(ccc(c24)C(=O)C1(Cl)Cl)CC3 | 10600 mg/kg

Row | Compound | LD50
26 | CC(C)(C=O)CO | 3200 mg/kg
27 | CCC(C)OC(C[n+]1ccccc1)c1ccc(Cl)cc1 (stereo unspecified) | 250 mg/kg
28 | CCOC1CC(C)C=CO1 (stereo unspecified) | 3400 mg/kg
29 | CCCC(=O)NP(=O)(OC)SC (stereo unspecified) | 125 mg/kg
30 | CCCOc1cccc(C)c1N(COCC)C(=O)CCl | 2600 mg/kg
31 | COP(=O)(OC)SC(P(=O)(OC)OC)=P(OC)(OC)OC | 38 mg/kg
32 | CCn1cc(C(=O)O)c(=O)c2cc(F)c(N3CCN(C)CC3)cc21 | 2500 mg/kg
33 | Cc1ccc(O)c(C2CCCCC2)c1 | 1870 mg/kg
34 | CCCCOC(=O)CCC(=O)OCCCC | 8000 mg/kg
35 | COC(=O)Cc1ccccc1 | 2550 mg/kg
36 | CC[C@@H](COC(=O)c1cc(OC)c(OC)c(OC)c1)N(C)CCN(C)[C@@H](CC)COC(=O)c1cc(OC)c(OC)c(OC)c1 | 1500 mg/kg
37 | CCCCC(CC)C(=O)O[Si](C)(OC(=O)C(CC)CCCC)OC(=O)C(CC)CCCC (stereo unspecified) | 2280 mg/kg
38 | COc1cc(Cc2cnc(N)nc2N)cc(OC)c1OC | 200 mg/kg
39 | C/C(=C\C(C)CC(C)CC(C)C)C1CC(=O)OC1=O (stereo unspecified) | 2550 mg/kg
40 | O[C@@H]1CO[C@H]2[C@@H]1OC[C@@H]2O | 24200 mg/kg
41 | Cn1c(=O)c2c(ncn2CCCN2CCN(CCCSc3ccccc3)CC2)n(C)c1=O | 1600 mg/kg
42 | CC(C)=CCCC(C)CC=O (stereo unspecified) | 2420 mg/kg and 7200 mg/kg
43 | C=C1C[C@]23C[C@@]1(O)CC[C@H]2[C@@]12C=C[C@H](O)[C@@](C)(C(=O)O1)[C@H]2[C@@H]3C(=O)O | 6300 mg/kg
44 | COc1c(Cl)ccc(Cl)c1C(=O)O | 6760 mg/kg and 2630 mg/kg
45 | BrC/C=C/CBr | 62 mg/kg
46 | CCOC(=O)c1ccccc1S(=O)(=O)NC(=O)Nc1nc(Cl)cc(OC)n1 | 4100 mg/kg
47 | NCCOC(=O)C=CC(=O)OCCN | 4920 mg/kg
48 | CC1=C(C(=O)OCCN(C)Cc2ccc(F)cc2)C(c2cccc3c2OCO3)C(C(=O)OC(C)C)=C(C)N1 (stereo unspecified) | 64 mg/kg
49 | c1ccc(C2(N3CCCCC3)CCCCC2)cc1 | 135 mg/kg
50 | CCN(CC)c1ccc(N=Nc2ccc(S(=O)(=O)N(C)C)cc2)c(S(=O)(=O)NCC[n+]2ccccc2)c1 | 5120 mg/kg

Row | Compound | LD50
51 | c1cncc(C2CCCCN2)c1 (stereo unspecified) | 210 mg/kg and 235 mg/kg
52 | CC(C)CC(C)CC(O)CC(C)C (stereo unspecified) | 17000 mg/kg
53 | O=C(NCCO[N+](=O)[O-])c1cccnc1 | 1220 mg/kg
54 | FC(F)(F)c1nc2c(Br)c(Br)c(Br)cc2[nH]1 | 7.18 mg/kg
55 | CN(CCO)CC(O)Cn1cnc2c1c(=O)n(C)c(=O)n2C (stereo unspecified) | 14100 mg/kg
56 | COC(C)CC(OC)OC (stereo unspecified) | 1480 mg/kg
57 | CCN(CC)CCN | 2830 mg/kg
58 | CN(C(=O)CN(CCO)CC(=O)N(C)C(C)(C)Cc1ccccc1)C(C)(C)Cc1ccccc1 | 1000 mg/kg and 675 mg/kg
59 | N#CCCC1CN2CCc3cc4c(cc3C2CC1=O)OCO4 (stereo unspecified) | 1410 mg/kg
60 | C[C@H](CCC(=O)O)[C@H]1CC[C@H]2[C@@H]3[C@@H](O)C[C@@H]4C[C@H](O)CC[C@]4(C)[C@H]3CC[C@]12C | 4600 mg/kg
61 | CN(CCCn1cnc2c1c(=O)n(C)c(=O)n2C)c1ccccc1 | 1640 mg/kg
62 | CCN(CC)CCOc1ccc(C2=C(c3ccccc3)CCc3cc(OC)ccc32)cc1 | 547 mg/kg
63 | NNC(=O)CCCCCCCCC(=O)NN | 2500 mg/kg
64 | CCOC(=O)C1(c2ccccc2)CCN(CCC(C#N)(c2ccccc2)c2ccccc2)CC1 | 221 mg/kg
65 | CC=Cc1ccc(OP(=S)(OC)OC)c(OC)c1 | 250 mg/kg
66 | COC(=O)/C=C(\C)OP(=O)(OC)OC | 3 mg/kg
67 | CCCCOC(=O)CCCCC(=O)OCCCC | 12900 mg/kg
68 | CCCSCSP(=S)(OCC)OCC | 2.8 mg/kg
69 | CCCCOC(=O)CC(SP(=O)(OC)OC)C(=O)OCCCC (stereo unspecified) | 515 mg/kg
70 | Cc1cccc(C)c1N(Cn1cccn1)C(=O)CCl | 1000 mg/kg
71 | Nc1cccc2c(N)cccc12 | 634 mg/kg
72 | CC=C1CC(C)C(C)(O)C(=O)OCC2=CCN3CCC(OC1=O)C23 (stereo unspecified) | 85 mg/kg
73 | CCCC1(c2cccc(O)c2)CCN(C)C1 (stereo unspecified) | 231 mg/kg
74 | N#Cc1nn(-c2c(Cl)cc(C(F)(F)F)cc2Cl)c(N)c1S(=O)(=O)C(F)(F)F | 184 mg/kg
75 | C=CCN(CC=C)c1c(C)cc(OC(=O)NC)cc1C | 89 mg/kg

Row | Compound | LD50
76 | CC1(C)SCN(C(=O)C2(Oc3ccc(Cl)cc3)CCCCC2)C1C(=O)O (stereo unspecified) | 4350 mg/kg
77 | CC(Cl)CO (stereo unspecified) | 218 mg/kg
78 | CSN(C)C(=O)Oc1cccc2c1OC(C)(C)C2 | 5 mg/kg
79 | O=S(=O)(c1ccc(Cl)cc1)c1cc(Cl)c(Cl)cc1Cl | 566 mg/kg
80 | COc1cc(C)c2[nH]c(C)c(CCN3CC4CCC(CC4)C3)c2c1 | 787 mg/kg
81 | CCC1NC(=O)c2cc(N)ccc2O1 (stereo unspecified) | 1890 mg/kg
82 | CC(CN(C)C)CN1c2ccccc2CCc2ccccc21 (stereo unspecified) | 800 mg/kg
83 | CCCCCCOC(C)=O | 42000 mg/kg
84 | c1cncc(CSSCc2cccnc2)c1 | 2150 mg/kg
85 | CN(C)c1nc2cc(Cl)ccc2o1 | 800 mg/kg
86 | FC(F)(F)c1cccc(C2CNCCO2)c1 (stereo unspecified) | 271 mg/kg
87 | COC(=O)[C@H](C)N(OC)c1c(C)cccc1C | 566 mg/kg
88 | CCCCNCCC[Si](OC)(OC)OC | 12800 mg/kg
89 | CCCCNC(=O)OCC(O)C1COc2ccccc2O1 (stereo unspecified) | 1500 mg/kg
90 | CN(C)c1ccccc1CS(=O)c1nc2ccccc2[nH]1 (stereo unspecified) | 1300 mg/kg
91 | Cc1c(COC(=O)[C@@H]2[C@H](/C=C(\Cl)C(F)(F)F)C2(C)C)cccc1-c1ccccc1 (racemic) | 54.5 mg/kg
92 | COC(=O)c1cccc(C)c1O | 3840 mg/kg
93 | C[n+]1ccc(-c2ccccc2)cc1 | 35 mg/kg
94 | C#CCN1CCC2=C(C1)c1c(O)cc(C(C)C(C)CCCCC)cc1OC2(C)C (stereo unspecified) | 900 mg/kg
95 | CCCCCCCC/C=C\CCCCCCCC[N+](C)(C)CC | 500 mg/kg
96 | CCOP(=O)(OCC)SCCSCC | 1.5 mg/kg
97 | Cc1nccnc1N1CCCCC1 | 730 mg/kg
98 | O=c1[nH]c2c(Cl)c(Cl)cc(Cl)c2o1 | 500 mg/kg
99 | Cc1cc2c(cc1C)C(=O)c1n[nH]nc1C2=O | 980 mg/kg
100 | CC(O)COS(C)(=O)=S (stereo unspecified) | 794 mg/kg

Row | Compound | LD50
101 | CCC(O)C(c1ccccc1)N1CCN(CCOc2ccccc2C)CC1 (stereo unspecified) | 700 mg/kg
102 | c1ccc2c(c1)CCCC2 | 2860 mg/kg
103 | NCCNc1ccc(N)cc1 | 190 mg/kg
104 | OCCCO | 15000 mg/kg
105 | CCOc1ccc(F)cc1C(CN(C)C)C(C)CC (stereo unspecified) | 324 mg/kg
106 | CC(=O)Oc1c([N+](=O)[O-])cc([N+](=O)[O-])cc1C(C)(C)C | 62 mg/kg
107 | Nc1ccc2c(c1)[nH]c1ccccc12 | 964 mg/kg
108 | O=C(CCNNC(=O)c1ccncc1)NCc1ccccc1 | 1700 mg/kg
109 | Brc1cc2c(cc1Br)Oc1cc(Br)c(Br)cc1O2 | 0.1 mg/kg
110 | CC(=O)c1ccc(O)cc1O | 2830 mg/kg
111 | FC(F)(F)c1nc2c(Cl)cc(Cl)c(Cl)c2[nH]1 | 6.33 mg/kg
112 | O=C1C(O)N=C(c2ccccc2F)c2cc(Cl)ccc2N1CCO (stereo unspecified) | 2550 mg/kg
113 | C=C(C)C(=O)OCCSCCCC | 5300 mg/kg
114 | CC(C)C(Br)C(=O)OC(C)C(Cl)(Cl)Cl (stereo unspecified) | 1200 mg/kg
115 | CCOP(N)(=O)SC (stereo unspecified) | 5 mg/kg
116 | O=S(=O)(O)c1ccc2c(Cc3cccc4cc(S(=O)(=O)O)ccc34)cccc2c1 | 3800 mg/kg
117 | CC(C)(C)c1ccc(C(=O)O)cc1 | 473 mg/kg
118 | CCOP(=S)(OCC)Oc1cnn(C)c(=O)c1OC | 2.5 mg/kg
119 | COc1c2ccoc2cc2oc(C)cc(=O)c12 | 832 mg/kg
120 | NCCCCCCCCCCC(=O)O | 14700 mg/kg
121 | CCCCOCC(O)COc1ccccc1 (stereo unspecified) | 2370 mg/kg
